{"source": "patent US5482954A", "about": "“Signal transduction inhibitor triazole and diazole compounds” (priority 1994, dated 1996)", "key": {"[1]": {"assay": "Plasma levels in patients of phase I clinical study", "type": "in vivo", "details": "human, po", "from_the_text": "(§1) Seven patients with solid tumor metastasis are undergoing treatment via oral administration of compound 1 under the FDA approved phase I clinical study. Table J provides data on the patients' response to this treatment. PT# is patient number. Response is the sum of the products of bidirectional measurements. No measurement means that while the disease was evaluable, it was not measureable. The concentration of the drug in the blood of the patients is well within the range which inhibits signal transduction in vitro and which inhibits tumor growth in vitro and in animals.\nThe concentration of compound 1 in the blood of patient #1 was from 1-2 μg/mL, while that of the other three patients was >3 μg/mL (>7 μM). These concentrations are well within the range which inhibit signal transduction in vitro and which inhibit tumor growth in animals."}, "[2]": {"system": "HT-29 human colon cancer cells", "assay": "Experimental pulmonary metastasis, tumor cells pretreated in vitro", "type": "in vivo, nude mice", "details": "cells treated 10 μg/mL, 24 hr; day 28", "method": "Compound 1 was also tested for efficacy against HT-29 human colon cancer cells. HT-29 tumor cells were incubated with compound 1, 10 μg/mL, or DMSO vehicle (0.05%) for 24 hr. After harvesting and washing, one million cells were injected into the lateral tail vein of nude mice. Animals were humanely sacrificed on day 28, the lungs were inflated and fixed, and the number of pulmonary metastases were then counted. Observations on the size of the metastases were also made."}, "[3]": {"system": "L-type voltage gated calcium channels", "details": "Hupe, et al.; cited from earlier work"}, "OVCAR3 cells [4]": {"system": "OVCAR3 cells", "assay": "Colony formation (soft agar)", "type": "cell-based", "details": "Homo sapiens, OVCAR-3", "method": "Colony formation: Compound 1 was evaluated at three concentrations for inhibition of colony formation in both the A2058 and OVCAR3 cell lines. Colony number was determined in triplicate and compared to the vehicle control run on each 24 well plate to provide a percent. Colonies greater than 60 cells were counted at 100× under phase contrast. […] In a second study, selected compounds were evaluated for their effect on density-independent growth of the A2058 cell line in soft agar. Percent inhibition was determined over triplicate experiments involving three log molar concentrations of the test compound."}, "cell adhesion to laminin": {"system": "cell adhesion to laminin", "assay": "Cell adhesion to laminin", "type": "cell-based", "details": "data not shown", "method": "(§2) Cells were preincubated with compound 1 (0.03-10 μg/mL) for periods of 2 to 48 hr prior to the adhesion assay. In addition, compound 1 remained present during the assay. […] Maximal inhibition of adhesion was observed following overnight exposure of the cells to compound 1."}, "MDA-231 cells": {"system": "MDA-231 cells", "assay": "[3H]thymidine incorporation", "type": "cell-based, human", "details": "0-10 μg/mL, 24 hr", "method": "(§3) Proliferation: Two independent methods were used to determine the effect of various compounds on cellular proliferation. The first method utilized [^3 H]thymidine labelling and was performed using A2058, 5R, OVCAR3, and MDA-231 cells. Because the potential effect of compound 1 on thymidine metabolism was unknown, a clonogenic assay was also used. This assay utilized crystal violet nuclear staining.\n(§4) For the thymidine incorporation assay, an initial aliquot of 15,000 cells was plated in 96 well plates. The cells were grown to subconfluence, serum-starved, then fed with serum-containing media to which incremental doses of compound 1 (0-10 μg/mL) were added. After 24 hr, the cells were pulsed with [^3 H]thymidine (0.5 μCi/well) for 2 hr. Trichloroacetic acid was added to precipitate […] [^3 H]thymidine. After removal, ice cold ethanol/diethyl ether was added to precipitate cellular nucleic acids. The residue was solubilized with 0.2M NaOH and [^3 H]thymidine incorporation was determined by liquid scintillation counting. Inhibition of thymidine uptake was calculated as a percent of untreated control cell incorporation of labelled thymidine. As FIG. 4 indicates, de novo DNA synthesis was inhibited in all of the tumor cell lines. Maximal inhibition (80%) was found with the 5R cells."}, "A2058 cells": {"system": "A2058 cells", "assay": "[3H]thymidine incorporation", "type": "cell-based, human", "details": "0-10 μg/mL, 24 hr", "method": "as §3, §4"}, "OVCAR3 cells [5]": {"system": "OVCAR3 cells", "assay": "[3H]thymidine incorporation", "type": "cell-based, human", "details": "0-10 μg/mL, 24 hr", "method": "as §3, §4"}, "solid tumor metastasis": {"system": "solid tumor metastasis", "assay": "Phase I clinical study, tumor response", "type": "in vivo, human", "from_the_text": "This example illustrates the effect of compound 1 on tumor growth and metastasis when administered orally to seven patients in an FDA approved phase I clinical study.\nas §1"}, "5R cells [6]": {"system": "5R cells", "assay": "[3H]thymidine incorporation", "type": "cell-based, rat", "details": "0-10 μg/mL, 24 hr", "method": "as §3, §4"}, "OVCAR3 cells [7]": {"system": "OVCAR3 cells", "assay": "Type IV collagen-stimulated motility", "type": "cell-based, human", "details": "data not shown"}, "[8]": {"system": "cell adhesion to fibronectin", "assay": "Cell adhesion to fibronectin", "type": "cell-based", "details": "data not shown", "method": "as §2"}, "5R cells [9]": {"system": "5R cells", "assay": "Oral treatment, prevention of experimental metastasis", "type": "in vivo, nude mice", "method": "Finally, compound 1 was tested for efficacy in prevention of the formation and growth of experimental metastases. Oral administration of compound 1 or PEG-400 vehicle to nude mice was carried out for 5 days. On day 6, untreated 5R cells (10^4) were introduced into the animals by tail vein inoculation. The animals were then randomized into four groups. Two groups of animals which had received only vehicle were subsequently treated with either vehicle (PEG/PEG) or 1 (PEG/1). The other two groups which had been treated with 1 were similarly treated post-inoculation with either vehicle (1/PEG) or 1 (1/1). Treatments were continued for 10 d, after which the lungs were removed and the pulmonary metastases were counted. Histologic confirmation of the fibrosarcoma due to the 5R cells was obtained. […] No toxicity was noted during treatment or at necropsy."}, "[10]": {"details": "patient 1, melanoma, 100 mg/m^2 qod"}, "[11]": {"details": "patient 2, colon, 100 mg/m^2 qd"}, "[12]": {"details": "patient 4, ovary, 100 mg/m^2 qd"}}, "note": "Several values for one entry are separate records, joined by “and”; a condition that tells them apart may be missing. Identical values can stand only once. Like-named read-outs stand apart in the source and are kept apart here."}
{"smiles": "NC(=O)c1nnn(Cc2cc(Cl)c(C(=O)c3ccc(Cl)cc3)c(Cl)c2)c1N", "note": "[Compound 1]", "values": [{"measurement": "Cmax", "setting": "[1]; 100 mg/m^2, patient 1, melanoma, 100 mg/m^2 qod, oral, read-out: PEAK LEVEL", "result": 1250, "unit": "ng/mL"}, {"measurement": "Cmax", "setting": "[1]; 100 mg/m^2, patient 2, colon, 100 mg/m^2 qd, oral, read-out: PEAK LEVEL", "result": 3610, "unit": "ng/mL"}, {"measurement": "Cmax", "setting": "[1]; 100 mg/m^2, patient 3, colon, 100 mg/m^2 qd, oral, read-out: PEAK LEVEL", "result": 3530, "unit": "ng/mL"}, {"measurement": "Cmax", "setting": "[1]; 100 mg/m^2, patient 4, ovary, 100 mg/m^2 qd, oral, read-out: PEAK LEVEL", "result": 3080, "unit": "ng/mL"}, {"measurement": "Cmax", "setting": "[1]; 200 mg/m^2, patient 5, lung, 200 mg/m^2 qod, oral, read-out: PEAK LEVEL", "result": 1770, "unit": "ng/mL"}, {"measurement": "Cmax", "setting": "[1]; 200 mg/m^2, patient 6, carcinoid, 200 mg/m^2 qod, oral, read-out: PEAK LEVEL", "result": 1340, "unit": "ng/mL"}, {"measurement": "Cmax", "setting": "[1]; 200 mg/m^2, patient 7, colon, 200 mg/m^2 qod, oral, read-out: PEAK LEVEL", "result": 2830, "unit": "ng/mL"}, {"measurement": "Cmax", "setting": "[1]; other three patients of FIG. 19, read-out: concentration in the blood (peak/steady state)", "result": "> 3000 ng/mL and > 7 µM"}, {"measurement": "Cmax", "setting": "[1]; patient #1, read-out: concentration in the blood (peak/steady state)", "result": "1000 to 2000", "unit": "ng/mL"}, {"measurement": "inhibition of pulmonary colonization", "setting": "[2]", "result": 96, "unit": "%"}, {"measurement": "size of pulmonary metastases", "setting": "[2]", "result": "marked reduction in size"}, {"measurement": "inhibition of L-type voltage gated calcium channels", "setting": "[3]", "result": "inhibit"}, {"measurement": "inhibition at 2 µM", "setting": "OVCAR3 cells [4]", "result": "> 70", "unit": "%"}, {"measurement": "cell adhesion to laminin", "setting": "cell adhesion to laminin", "result": "decreased cell adhesion"}, {"measurement": "inhibition of de novo DNA synthesis", "setting": "MDA-231 cells", "result": "inhibited"}, {"measurement": "inhibition of de novo DNA synthesis", "setting": "A2058 cells", "result": "inhibited"}, {"measurement": "inhibition of de novo DNA synthesis", "setting": "OVCAR3 cells [5]", "result": "inhibited"}, {"measurement": "RESPONSE", "setting": "solid tumor metastasis; [10]", "result": "Stable"}, {"measurement": "RESPONSE (sum of products of bidirectional measurements)", "setting": "solid tumor metastasis; [10]", "result": "+8%"}, {"measurement": "inhibition of growth rate (cm^2 /day)", "setting": "solid tumor metastasis; patient 1, metastasis lesion #1, X-ray", "result": 79, "unit": "%"}, {"measurement": "inhibition of growth rate (cm^2 /day)", "setting": "solid tumor metastasis; patient 1, metastasis lesion #2, X-ray", "result": 59, "unit": "%"}, {"measurement": "suppression and regression of colon cancer metastases", "setting": "solid tumor metastasis; patient 2", "result": "suppression and regression of 3 of 3 colon cancer metastases"}, {"measurement": "RESPONSE", "setting": "solid tumor metastasis; [11]", "result": "Stable"}, {"measurement": "RESPONSE (sum of products of bidirectional measurements)", "setting": "solid tumor metastasis; [11]", "result": -22, "unit": "%"}, {"measurement": "RESPONSE", "setting": "solid tumor metastasis; patient 3, colon, 100 mg/m^2 qd", "result": "Stable"}, {"measurement": "RESPONSE", "setting": "solid tumor metastasis; [12]", "result": "Stable"}, {"measurement": "RESPONSE (sum of products of bidirectional measurements)", "setting": "solid tumor metastasis; [12]", "result": -21, "unit": "%"}, {"measurement": "RESPONSE", "setting": "solid tumor metastasis; patient 5, lung, 200 mg/m^2 qod", "result": "Stable"}, {"measurement": "RESPONSE", "setting": "solid tumor metastasis; patient 6, carcinoid, 200 mg/m^2 qod", "result": "Stable"}, {"measurement": "RESPONSE", "setting": "solid tumor metastasis; patient 7, colon, 200 mg/m^2 qod", "result": "Progres-"}, {"measurement": "maximal inhibition of de novo DNA synthesis ([3H]thymidine incorporation)", "setting": "5R cells [6]", "result": 80, "unit": "%"}, {"measurement": "motility due to type IV collagen stimulation", "setting": "OVCAR3 cells [7]", "result": "inhibited motility"}, {"measurement": "cell adhesion to fibronectin", "setting": "[8]", "result": "decreased cell adhesion"}, {"measurement": "toxicity", "setting": "5R cells [9]; during treatment or at necropsy", "result": "No toxicity"}, {"measurement": "metastatic colonization", "setting": "5R cells [9]; given prior to tumor cell injection", "result": "prevented metastatic colonization as effectively as when 1 was administered only after tumor cell inoculation or when given continuously"}, {"measurement": "number of pulmonary metastases", "setting": "5R cells [9]; treatment prior to, post, or prior to and post inoculation", "result": "statistically significantly inhibited"}]}
